From US20210369846A1 (priority 2018, published 2021)
Where “and” joins values, the source holds several entries; their conditions need not be identical. Equal entries are not always repeated. Marks after values point to notes of the source that are not given here.

Assays:
[1] = system: HMEC-1 human vascular endothelial cells
male Sprague Dawley rats = assay: Red blood cells substitute in vivo test: gradual bleeding with compensation in rats under general anaesthesia; design: species or system rat
Description: The study protocol was approved by the Local Ethical Committee (No. WAW2/057/2018), Warsaw University of Life Sciences, Warsaw, Poland. Study was carried out by the Department of Large Animal Diseases with the Clinic of the Faculty of Veterinary Medicine of the Warsaw University of Life Sciences in Warsaw. The study involved male Sprague Dawley rats (n=19; weight, 400±20 g; age, 8 to 12 weeks) obtained from the Mossakowski Medical Research Centre, Polish Academy of Sciences (Warsaw, Poland) divided into 4 non-equal groups (table below). The animals were kept in accordance with national animal welfare guidelines.
12 h before the experiment, feedstuffs were removed from animals' cages without restrictions to the water. Animals were weighted for circulating blood volume calculation according to Lee and Blaufox (1985) and anesthetized by intramuscular injection of the mixture of Ceptor—0.1 mL (Scanvet), Butomidor—0.1 mL (Richter Pharma AG) and Bioketan—0.1 mL (Vetoquinol). Within 2 min after injection, animals were placed in the dorsal position, on Thermo-Controlled Surgery Platform (Braintree Scientific, USA) and the catheter for blood collection was implanted.
A silicone catheter (Scientific Commodities INC, USA) was inserted into the left common jugular vein towards the heart and fastened with a tie (non-absorbable twisted strand, 4-0) for best fluid delivery and blood sampling. The catheter was kept filled with Ringer's fluid between the blood removals. The catheter's patency was maintained without the use of anti-clotting agents. The skin was not stitched, a swab moistened with saline solution was applied to the wound. Then the rats were transferred to a GN 1/1 electric heating plate (temp. 37±1° C., Bartscher, Poland), where a cuff was applied to the rat's tail to measure bloodless tail blood pressure (MLT125R, ADI, Australia), connected to the system NIBP (Non-Invasive Blood Pressure, ADI, Australia) and eight-channel PowerLab (ADI, Australia) and PC. Throughout the experiment, pulse and blood pressure were recorded in the Chart program (ADI, Australia). During the entire experiment, systolic and mean arterial blood readings were taken up to a blood pressure systolic threshold reading of 40 mm Hg between blood collections.
A total of 4 experiment variants were performed, as in the table above, using the method of gradual bleeding with compensation described in the previous experiment (5% of circulating blood). Compensations were used in subsequent experiments: Voluven fluid (Hydroxyethyl starch (HES 130/0.4), dextran 130 kDa, Fresenius Kabi) and formulations 2j3c, 2j3e and 2l3e (NanoSanguis) administered in Voluven fluid (concentration 0.5% w/v).
In venous blood samples, blood gas determinations (Siemens EPOC gasometer) were performed: pH, pCO2 (CO2 pressure, mm Hg), pO2 (oxygen pressure, mm Hg), cHCO3-(bicarbonate ion concentration, mmol/L), BE (ecf) (deficiency in blood buffering bases, mmol/L), hematocrit (Hct, %, less precise measurement than in a morphology analyzer), glucose (mg/dL), lactate (Lac, mmol/L), creatinine (Crea, mg/dL) followed by morphology (Mindray analyzer): hematocrit (hct, %), hemoglobin (g/L), red blood cell count (RBC, 10^12/L), white blood cell count (WBC, ×10^9/L) and platelet count (PLT, ×10^9/L). […] The results are given in the attached Excel spreadsheet. Blood for other biochemical analyses was centrifuged and frozen (−20° C.). Collected organ (liver, kidney, lung and heart) samples were fixed in buffered formalin, and after 48 hours. transferred to 70% ethyl alcohol and stored for histological examination. Histological examination was performed after routine staining of the hematoxylin and eosin sections.

O=C(O)CCCC(=O)OCCC(F)(F)C(F)(F)C(F)(F)C(F)(F)C(F)(F)C(F)(F)F [2k3k]
Maximum Non-Cytotoxic Concentration HMEC-1 [1]: 0.10** %
Maximum Non-Hemolytic Concentration (blood): 0.05%
Maximum Non-Cytotoxic Concentration L929 (L929 mouse fibroblasts): 0.20** %

O=C(O)CC(F)(F)C(F)(F)C(F)(F)C(F)(F)C(F)(F)C(F)(F)F [2p3e]
Maximum Non-Cytotoxic Concentration HMEC-1 [1]: 0.25%
Maximum Non-Hemolytic Concentration (blood): 0.25%
Maximum Non-Cytotoxic Concentration L929 (L929 mouse fibroblasts): 0.1%

O=C(O)CCCCCSCCC(F)(F)C(F)(F)C(F)(F)C(F)(F)C(F)(F)C(F)(F)C(F)(F)C(F)(F)F [2c3k]
Maximum Non-Cytotoxic Concentration HMEC-1 [1]: 1%
Maximum Non-Hemolytic Concentration (blood): 0.05%
Maximum Non-Cytotoxic Concentration L929 (L929 mouse fibroblasts): 0.25%

O=C(O)CCC(=O)OCCC(F)(F)C(F)(F)C(F)(F)C(F)(F)C(F)(F)C(F)(F)F [2i3e]
Maximum Non-Cytotoxic Concentration HMEC-1 [1]: 0.10** %
Maximum Non-Hemolytic Concentration (blood): 0.05%
Maximum Non-Cytotoxic Concentration L929 (L929 mouse fibroblasts): 0.20** %

O=C(O)CCC(=O)OCCC(F)(F)C(F)(F)C(F)(F)C(F)(F)C(F)(F)C(F)(F)C(F)(F)C(F)(F)F [2j3k]
Maximum Non-Cytotoxic Concentration HMEC-1 [1]: 0.5%
Concentrations with no hemolytic properties (blood): ≤ 1%
Maximum Non-Hemolytic Concentration (blood): 1%
Maximum Non-Cytotoxic Concentration L929 (L929 mouse fibroblasts): 0.50* %

O=C(O)CCCC(=O)OCCC(F)(F)C(F)(F)C(F)(F)C(F)(F)C(F)(F)C(F)(F)C(F)(F)C(F)(F)F [2l3l]
Maximum Non-Cytotoxic Concentration HMEC-1 [1]: >1.00%
Maximum Non-Hemolytic Concentration (blood): >2.00%
Maximum Non-Cytotoxic Concentration L929 (L929 mouse fibroblasts): >1.00%

O=C(O)CSCCC(F)(F)C(F)(F)C(F)(F)C(F)(F)C(F)(F)C(F)(F)C(F)(F)C(F)(F)F [2a3c]
Maximum Non-Cytotoxic Concentration HMEC-1 [1]: 0.2%
Maximum Non-Hemolytic Concentration (blood): 0.2%
Maximum Non-Cytotoxic Concentration L929 (L929 mouse fibroblasts): 0.2%

O=C(O)CCCCCSCCC(F)(F)C(F)(F)C(F)(F)C(F)(F)C(F)(F)C(F)(F)C(F)(F)C(F)(F)F [2c3f]
Maximum Non-Cytotoxic Concentration HMEC-1 [1]: 1%
Concentrations with hemolytic properties (blood): above 0.05%
Maximum Non-Hemolytic Concentration (blood): 0.01%
Maximum Non-Cytotoxic Concentration L929 (L929 mouse fibroblasts): <0.25%

O=C(O)CSCCC(F)(F)C(F)(F)C(F)(F)C(F)(F)C(F)(F)C(F)(F)C(F)(F)C(F)(F)F [2a3a]
Maximum Non-Cytotoxic Concentration HMEC-1 [1]: 1%
Maximum Non-Hemolytic Concentration (blood): 0.05%
Maximum Non-Cytotoxic Concentration L929 (L929 mouse fibroblasts): 0.5%

O=C(O)C(CCC(F)(F)C(F)(F)C(F)(F)C(F)(F)C(F)(F)C(F)(F)C(F)(F)C(F)(F)F)C(=O)O [2s3e]
Maximum Non-Cytotoxic Concentration HMEC-1 [1]: 0.25%
Maximum Non-Hemolytic Concentration (blood): 0.1%
Maximum Non-Cytotoxic Concentration L929 (L929 mouse fibroblasts): 0.25%

O=C(O)CSCCC(F)(F)C(F)(F)C(F)(F)C(F)(F)C(F)(F)C(F)(F)C(F)(F)C(F)(F)F [2a3e]
Maximum Non-Cytotoxic Concentration HMEC-1 [1]: 0.2%
Maximum Non-Hemolytic Concentration (blood): 0.25%
Maximum Non-Cytotoxic Concentration L929 (L929 mouse fibroblasts): 0.2%

O=C(O)CCCCCSCCC(F)(F)C(F)(F)C(F)(F)C(F)(F)C(F)(F)C(F)(F)C(F)(F)C(F)(F)F [2c3a]
Maximum Non-Cytotoxic Concentration HMEC-1 [1]: 0.5%
Maximum Non-Hemolytic Concentration (blood): 0.02%
Maximum Non-Cytotoxic Concentration L929 (L929 mouse fibroblasts): 0.5%

O=C(O)CCC(=O)OCCC(F)(F)C(F)(F)C(F)(F)C(F)(F)C(F)(F)C(F)(F)F [2i3k]
Maximum Non-Cytotoxic Concentration HMEC-1 [1]: 0.1%
Maximum Non-Hemolytic Concentration (blood): 0.1%
Maximum Non-Cytotoxic Concentration L929 (L929 mouse fibroblasts): 0.1%

O=C(O)CCC(=O)OCCC(F)(F)C(F)(F)C(F)(F)C(F)(F)C(F)(F)C(F)(F)C(F)(F)C(F)(F)F [2j3l]
Maximum Non-Cytotoxic Concentration HMEC-1 [1]: 1%
Maximum Non-Hemolytic Concentration (blood): >2.00%
Maximum Non-Cytotoxic Concentration L929 (L929 mouse fibroblasts): 0.10** %

O=C(O)CCC(=O)OCCC(F)(F)C(F)(F)C(F)(F)C(F)(F)C(F)(F)C(F)(F)C(F)(F)C(F)(F)F [2j2j3h]
Maximum Non-Cytotoxic Concentration HMEC-1 [1]: 1%
Maximum Non-Hemolytic Concentration (blood): >2.00%
Maximum Non-Cytotoxic Concentration L929 (L929 mouse fibroblasts): 0.25** %

O=C(O)CCCC(=O)OCCC(F)(F)C(F)(F)C(F)(F)C(F)(F)C(F)(F)C(F)(F)F [2k3c]
Maximum Non-Cytotoxic Concentration HMEC-1 [1]: 0.10* %
Maximum Non-Hemolytic Concentration (blood): 0.05%
Maximum Non-Cytotoxic Concentration L929 (L929 mouse fibroblasts): 0.10* %

O=C(O)CC(F)(F)C(F)(F)C(F)(F)C(F)(F)C(F)(F)C(F)(F)F [2p3c]
Maximum Non-Cytotoxic Concentration HMEC-1 [1]: 0.1%
Maximum Non-Hemolytic Concentration (blood): 0.25%
Maximum Non-Cytotoxic Concentration L929 (L929 mouse fibroblasts): 0.1%

O=C(O)CCC(=O)OCCC(F)(F)C(F)(F)C(F)(F)C(F)(F)C(F)(F)C(F)(F)C(F)(F)C(F)(F)F [2j3e]
Maximum Non-Cytotoxic Concentration HMEC-1 [1]: 0.5%
Maximum Non-Hemolytic Concentration (blood): 1%
Buffer balance deficiency (Be (ecf)) occurred at (male Sprague Dawley rats; 0.5% w/v in Voluven): 14-19 intervals
Lactate concentration above physiological values (limit 8.5 mmol/L) occurred at intervals (male Sprague Dawley rats; 0.5% w/v in Voluven): 13-19 intervals
Survival of rats higher compared to the control group receiving Voluven (male Sprague Dawley rats; 0.5% w/v in Voluven): 8 intervals
Amount of 5-min intervals (duration until cardiac cessation, per rat) (male Sprague Dawley rats; 0.5% w/v in Voluven, exchange of 5% of blood volume per interval, individual rats): 15 5-min intervals and 17 5-min intervals and 21 5-min intervals and 25 5-min intervals and 29 5-min intervals
Hematocrit at the end of the experiment (male Sprague Dawley rats; 0.5% w/v in Voluven, gradual decrease from physiological values): about 5%
Amount of 5-min intervals expressed in min (per rat) (male Sprague Dawley rats; 0.5% w/v in Voluven, individual rats): 145 min and 75 min and 85 min and 105 min and 125 min
pH maintained at 7.3 up to (male Sprague Dawley rats; 0.5% w/v in Voluven, venous blood): 13 intervals and 20 intervals
Maintaining systolic pressure above the limit, comparing to other test groups (male Sprague Dawley rats; limit 40 mm Hg): longer
Maximum Non-Cytotoxic Concentration L929 (L929 mouse fibroblasts): 0.5%

O=C(O)CCC(=O)OCCC(F)(F)C(F)(F)C(F)(F)C(F)(F)C(F)(F)C(F)(F)F [2i2i3h]
Maximum Non-Cytotoxic Concentration HMEC-1 [1]: 0.1%
Maximum Non-Hemolytic Concentration (blood): 0.05%
Maximum Non-Cytotoxic Concentration L929 (L929 mouse fibroblasts): 0.1%

O=C(O)CCCCCSCCC(F)(F)C(F)(F)C(F)(F)C(F)(F)C(F)(F)C(F)(F)C(F)(F)C(F)(F)F [2c3c]
Maximum Non-Cytotoxic Concentration HMEC-1 [1]: 0.5%
Maximum Non-Hemolytic Concentration (blood): 0.25%
Maximum Non-Cytotoxic Concentration L929 (L929 mouse fibroblasts): 0.25%

O=C(O)CCC(=O)OCCC(F)(F)C(F)(F)C(F)(F)C(F)(F)C(F)(F)C(F)(F)C(F)(F)C(F)(F)F [2j3a]
Maximum Non-Cytotoxic Concentration HMEC-1 [1]: 0.2%
Maximum Non-Hemolytic Concentration (blood): >2.00%
Maximum Non-Cytotoxic Concentration L929 (L929 mouse fibroblasts): 0.2%

O=C(O)CCC(=O)OCCC(F)(F)C(F)(F)C(F)(F)C(F)(F)C(F)(F)C(F)(F)F [2i3l]
Maximum Non-Cytotoxic Concentration HMEC-1 [1]: 0.01** %
Maximum Non-Hemolytic Concentration (blood): 0.05%
Maximum Non-Cytotoxic Concentration L929 (L929 mouse fibroblasts): 0.01** %

O=C(O)CCCCCSCCC(F)(F)C(F)(F)C(F)(F)C(F)(F)C(F)(F)C(F)(F)C(F)(F)C(F)(F)F [2c3e]
Maximum Non-Cytotoxic Concentration HMEC-1 [1]: 1%
Maximum Non-Hemolytic Concentration (blood): 0.02%
Maximum Non-Cytotoxic Concentration L929 (L929 mouse fibroblasts): 0.5%

O=C(O)CCCC(=O)OCCC(F)(F)C(F)(F)C(F)(F)C(F)(F)C(F)(F)C(F)(F)F [2k3l]
Maximum Non-Cytotoxic Concentration HMEC-1 [1]: <0.25%
Maximum Non-Hemolytic Concentration (blood): 0.05%
Maximum Non-Cytotoxic Concentration L929 (L929 mouse fibroblasts): <0.25* %

O=C(O)CCCC(=O)OCCC(F)(F)C(F)(F)C(F)(F)C(F)(F)C(F)(F)C(F)(F)F [2k3e]
Maximum Non-Cytotoxic Concentration HMEC-1 [1]: 0.01* %
Maximum Non-Hemolytic Concentration (blood): 0.05%
Maximum Non-Cytotoxic Concentration L929 (L929 mouse fibroblasts): 0.10* %

O=C(O)CSCCC(F)(F)C(F)(F)C(F)(F)C(F)(F)C(F)(F)C(F)(F)C(F)(F)C(F)(F)F [2a3f]
Maximum Non-Cytotoxic Concentration HMEC-1 [1]: 0.2%
Maximum Non-Hemolytic Concentration (blood): >2.00%
Maximum Non-Cytotoxic Concentration L929 (L929 mouse fibroblasts): 0.2%

O=C(O)CCC(=O)OCCC(F)(F)C(F)(F)C(F)(F)C(F)(F)C(F)(F)C(F)(F)F [2i3c]
Maximum Non-Cytotoxic Concentration HMEC-1 [1]: 0.10** %
Maximum Non-Hemolytic Concentration (blood): 0.02%
Maximum Non-Cytotoxic Concentration L929 (L929 mouse fibroblasts): 0.10** %

O=C(O)CCCC(=O)OCCC(F)(F)C(F)(F)C(F)(F)C(F)(F)C(F)(F)C(F)(F)C(F)(F)C(F)(F)F [2l3c]
Maximum Non-Cytotoxic Concentration HMEC-1 [1]: 0.5%
Maximum Non-Hemolytic Concentration (blood): >2.00%
Maximum Non-Cytotoxic Concentration L929 (L929 mouse fibroblasts): 0.5%

O=C(O)CCCCCSCCC(F)(F)C(F)(F)C(F)(F)C(F)(F)C(F)(F)C(F)(F)C(F)(F)C(F)(F)F [2c3l]
Maximum Non-Cytotoxic Concentration HMEC-1 [1]: 0.5%
Maximum Non-Hemolytic Concentration (blood): 0.02%
Maximum Non-Cytotoxic Concentration L929 (L929 mouse fibroblasts): 0.25* %
